Measured values: US8008094B2, “Methods for analyzing interactions between proteins and sugar chains” (National Institute of Advanced Industrial Science and …, priority 2003, dated 2011)

Columns and labels:
[1] = tested on: binding of Cy3-ASF to lectin spots; experiment: Inhibition of lectin-sugar chain interaction on lectin array by competitively inhibiting sugar (Example 1); settings: Cy3-ASF probe, increasing inhibiting sugar concentration
[2] = tested on: glycoprotein probe derived from mouse brain; experiment: Lectin array (40 lectins) with crude brain-derived glycoprotein probe plus inhibiting sugar (Example 7); type: binding; settings: 10 mM inhibiting sugar added to brain-derived glycoprotein probe, FIG. 14C
Experimental: A glycoprotein sample extracted and purified from mouse liver and a glycoprotein sample extracted and purified from mouse brain were labeled with Cy3 to form probes, then contacted with a lectin array onto which 40 types of lectins were immobilized, and the sugar chain profile of the entire extracted mouse glycoprotein mixture was observed. Next, 10 mM of lactose was added as a competitively inhibiting sugar to the brain-derived glycoprotein probe used in the previous experiment, and the sugar chain profile was observed (FIG. 14C). […] As shown by this experiment, even when using a lectin array for the sugar chain profiling of cruder samples, comparisons and analyses between individuals can be made easier and faster by the combined use of addition experiments that use various inhibiting sugars, and comparison and analysis after narrowing down the obtained data.

For `OC[C@H]1O[C@@H](O[C@H]2[C@H](O)[C@@H](O)C(O)O[C@@H]2CO)[C@H](O)[C@@H](O)[C@H]1O` (some centres unmarked) [lactose], the “fluorescence intensity of the spots in the presence of inhibiting sugar” value [1] was “decreases as the concentration of lactose (competitively inhibiting sugar) increases” and the “change of fluorescence signal pattern due to competitive inhibition” value [2] was “reduction was observed mainly in the signals of lactosamine-recognizing lectins”.
